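1) Cells in 96-well plates. 2) Compound, 48 h, 5 concentrations. 3) Linear interpolation between surrounding doses. 4) Unreached endpoint = highest concentration. At the GI50, growth is halved.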 Active and inactive are the calls of the source. Rule as the data show it: active = GI50 up to about 1.1 µM and inactive = higher.

Test systems include 786-0; ACHN; CCRF-CEM; COLO 205; HCC 2998; HL-60; Malme-3M; NCI-H226; NCI-H23; NCI-H522; OVCAR-5; OVCAR-8; SK-MEL-2; SR; TK-10; A498; HOP-62; HT-29; OVCAR-4.
What all share (assay): NCI anticancer screen, dose series, 48 h

As for `COc1ccc(Br)c(CN2CCc3ccccc32)c1OS(=O)(=O)c1ccc(C)cc1`, the GI50 in the assay on 786-0 is 23.7 µM (inactive); with ACHN, 14.7 µM (inactive); in the assay on CCRF-CEM it was 21.4 µM (inactive); in the assay on COLO 205, 11.9 µM (inactive); in the assay with HCC 2998, 6.31 µM (inactive); with HL-60, 5.15 µM (inactive). Besides, the GI50 was 45.2 µM (inactive) in the assay on Malme-3M; > 100 µM (inactive) with NCI-H226; 23.9 µM (inactive) with NCI-H23; 4.39 µM (inactive) in the assay with NCI-H522; > 100 µM (inactive) in the assay with OVCAR-5; 47.5 µM (inactive) with OVCAR-8. Moreover, the figures for the GI50 with SK-MEL-2, in the assay on SR and with TK-10 were 21.8 µM (inactive), 43.7 µM (inactive) and 8.02 µM (inactive), respectively.
As for `CC(=O)C1C(=O)C(=O)N(c2ccc(Cl)cc2C)C1=O` (stereo unspecified), the GI50 in the assay on 786-0, with A498, in the assay on ACHN, with CCRF-CEM, in the assay with COLO 205 and in the assay on HCC 2998 was > 100 µM (inactive) each time. In addition, the GI50 in the assay with HL-60, with HOP-62, in the assay with HT-29, in the assay with Malme-3M, with NCI-H23 and in the assay with NCI-H522 was > 100 µM (inactive) throughout. Further, the GI50 in the assay with OVCAR-4, in the assay on OVCAR-5, in the assay on OVCAR-8, with SK-MEL-2, in the assay on SR and with TK-10 was > 100 µM (inactive) in each case.
Regarding `COc1ccc2c(c1)[n+]([O-])c(-c1cccc(Cl)c1)c(N)[n+]2[O-]`, the GI50 in the assay with 786-0 is 95.1 µM (inactive); in the assay on A498, > 100 µM (inactive); with ACHN, 57.3 µM (inactive); with CCRF-CEM, 22.9 µM (inactive); in the assay with COLO 205 it was 16.6 µM (inactive); in the assay with HL-60, 29 µM (inactive). Also, the GI50 with HOP-62 was > 100 µM (inactive); in the assay on HT-29, 41.5 µM (inactive); with Malme-3M it was 37.2 µM (inactive); with NCI-H226, > 100 µM (inactive); in the assay with NCI-H23, 23.9 µM (inactive); with NCI-H522 it was 16.5 µM (inactive). The GI50 is 34.6 µM (inactive) with OVCAR-4; 33.1 µM (inactive) in the assay with OVCAR-5; 40.3 µM (inactive) in the assay with OVCAR-8; 18.7 µM (inactive) in the assay on SK-MEL-2; 43.6 µM (inactive) in the assay on SR.
Regarding `C/C(=N/NC(=O)c1ccccc1S(N)(=O)=O)C(CN1CCCCC1)C(C1=C(O)C2C=CC=CC2OC1=O)c1ccccc1` (stereo unspecified), the GI50 was > 100 µM (inactive) in the assay on 786-0; > 100 µM (inactive) with A498; 61.7 µM (inactive) in the assay with ACHN; 21.9 µM (inactive) in the assay with CCRF-CEM; 18.6 µM (inactive) in the assay on COLO 205; 23.4 µM (inactive) with HL-60. The GI50 in the assay with HOP-62 was > 100 µM (inactive); with HT-29 it was 83.9 µM (inactive); in the assay with Malme-3M it was 62.7 µM (inactive); with NCI-H226 it was 90.2 µM (inactive); in the assay with NCI-H23, > 100 µM (inactive); in the assay on NCI-H522, 52.7 µM (inactive). For the same compound, the GI50 was 67.1 µM (inactive) in the assay on OVCAR-4; > 100 µM (inactive) in the assay with OVCAR-5; > 100 µM (inactive) with OVCAR-8; 59.2 µM (inactive) with SK-MEL-2; 23.7 µM (inactive) with SR; > 100 µM (inactive) in the assay with TK-10.
Take `COC(C(O)c1ccc2c(c1)OCO2)P(=O)(c1ccccc1)c1ccccc1` (stereo unspecified): the GI50 in the assay on 786-0 is > 100 µM (inactive); in the assay on A498 it was 75.2 µM (inactive); in the assay on ACHN it was > 100 µM (inactive); in the assay on CCRF-CEM, > 100 µM (inactive); with HL-60 it was > 100 µM (inactive); with HOP-62, > 100 µM (inactive). Further, the GI50 was > 100 µM (inactive) with HT-29; 16 µM (inactive) in the assay on Malme-3M; 73.1 µM (inactive) with NCI-H226; 30.8 µM (inactive) with NCI-H23; 85.3 µM (inactive) in the assay on NCI-H522; 11.1 µM (inactive) in the assay with OVCAR-4. The GI50 was > 100 µM (inactive) with OVCAR-5; 62.1 µM (inactive) in the assay on OVCAR-8; > 100 µM (inactive) with SK-MEL-2; > 100 µM (inactive) in the assay on SR; > 100 µM (inactive) with TK-10.
Regarding `COc1ccc(/C=C(\C2=NC(=O)CS2)c2nc3ccccc3[nH]2)cc1`, the GI50 in the assay on A498 is 75.9 µM (inactive); in the assay on ACHN, 37.6 µM (inactive); in the assay with CCRF-CEM it was 39.4 µM (inactive); with COLO 205, > 100 µM (inactive); in the assay with HCC 2998, < 0.01 µM (active); in the assay on HL-60, > 100 µM (inactive). Besides, the GI50 in the assay on HOP-62 was 32.1 µM (inactive); in the assay on HT-29 it was > 100 µM (inactive); with Malme-3M, 69.3 µM (inactive); in the assay on NCI-H226, 8.95 µM (inactive); with NCI-H23 it was 69.7 µM (inactive); in the assay with NCI-H522, 16.5 µM (inactive). In addition, the GI50 in the assay with OVCAR-4 is > 100 µM (inactive); in the assay with OVCAR-5 it was 41.8 µM (inactive); in the assay with OVCAR-8, 46.8 µM (inactive); with SK-MEL-2 it was 24 µM (inactive); in the assay with SR, > 100 µM (inactive); with TK-10, > 100 µM (inactive).
Take `CCN(CC)CCNC(=O)c1cc2cc(NC(=O)c3cc4cc(NC(=O)c5cc6cc(N)ccc6[nH]5)ccc4[nH]3)ccc2[nH]1`: the GI50 in the assay on 786-0, with A498, with ACHN, in the assay with CCRF-CEM, with COLO 205 and in the assay on HCC 2998 was > 100 µM (inactive) in each case. For the same compound, the GI50 in the assay with HOP-62, with HT-29, in the assay with Malme-3M, with NCI-H226, in the assay with NCI-H23 and with NCI-H522 was > 100 µM (inactive) each time. The GI50 with OVCAR-4, in the assay with OVCAR-5, with OVCAR-8, in the assay with SK-MEL-2, in the assay on SR and in the assay with TK-10 was > 100 µM (inactive) in each case.
On to `O=C1NC2CCCCCC2C12CCCCC2` (stereo unspecified), for which the GI50 in the assay with A498, in the assay on ACHN, in the assay on CCRF-CEM, in the assay on HCC 2998, in the assay on HL-60 and with HOP-62 was > 100 µM (inactive) each time. Moreover, the GI50 in the assay on HT-29, in the assay with Malme-3M, with NCI-H226, with NCI-H23, in the assay with OVCAR-4 and in the assay on OVCAR-5 was > 100 µM (inactive) in each case. The GI50 with SR and in the assay with TK-10 was > 100 µM (inactive) each time.
Regarding `N#C/C(=C/c1ccco1)C(=O)c1ccccc1`, the GI50 in the assay with 786-0, with A498, with ACHN, in the assay on CCRF-CEM, with COLO 205 and in the assay on HCC 2998 was > 100 µM (inactive) throughout. Besides, the GI50 in the assay on HL-60, in the assay with HT-29, in the assay on Malme-3M, in the assay on NCI-H226, in the assay with NCI-H23 and with NCI-H522 was > 100 µM (inactive) in each case. In addition, the GI50 with OVCAR-4, with OVCAR-5, in the assay on OVCAR-8, in the assay with SK-MEL-2, with SR and in the assay on TK-10 was > 100 µM (inactive) each time.
Regarding `COC(CC1(/C=C/O[Si](C(C)C)(C(C)C)C(C)C)C(=O)N(COCC[Si](C)(C)C)c2ccccc21)OC` (stereo unspecified), the GI50 was 31 µM (inactive) in the assay on 786-0; > 100 µM (inactive) with A498; 26.6 µM (inactive) in the assay with ACHN; 13.4 µM (inactive) in the assay on CCRF-CEM; 66.8 µM (inactive) in the assay with COLO 205; 27.9 µM (inactive) in the assay with HCC 2998. The GI50 in the assay with HOP-62 was 66.8 µM (inactive); with HT-29, 96.4 µM (inactive); in the assay on NCI-H226, > 100 µM (inactive); with NCI-H23, 25.1 µM (inactive); in the assay with NCI-H522 it was 6.75 µM (inactive); in the assay with OVCAR-4, 20.8 µM (inactive). The GI50 in the assay with OVCAR-5 was 37.4 µM (inactive); with OVCAR-8, > 100 µM (inactive); with SK-MEL-2 it was 13.3 µM (inactive); in the assay with SR, 21 µM (inactive); in the assay with TK-10, 74.8 µM (inactive).
On to `c1ccc(N/N=C2\NN=C(c3ccccc3)CS2)cc1`, for which the GI50 with 786-0 was 15.7 µM (inactive); in the assay with A498, 10.8 µM (inactive); in the assay with ACHN it was 4.38 µM (inactive); in the assay with CCRF-CEM, 3.17 µM (inactive); in the assay with HCC 2998, 4.74 µM (inactive); in the assay on HL-60, 3.58 µM (inactive). The GI50 in the assay on HOP-62 was 22.3 µM (inactive); in the assay with HT-29, 6.89 µM (inactive); in the assay on NCI-H226, 16 µM (inactive); with NCI-H23, 17.9 µM (inactive); with NCI-H522, 3.49 µM (inactive); in the assay on OVCAR-5, 14.7 µM (inactive). The GI50 with OVCAR-8 is 5.27 µM (inactive); with SK-MEL-2 it was 18.2 µM (inactive); in the assay with SR it was 4.3 µM (inactive); in the assay with TK-10, 11.5 µM (inactive).
